Source: US6613317B1, “Volatile attractants for diabrotica species” (priority 1988, dated 2003)
Marks after values point to notes of the source that are not given here.

Legend:
[1] = test system: WCR; experiment: Limit of response rating of squash blossom volatiles on sticky traps (Example 5); type: in vivo, Diabrotica virgifera virgifera; conditions: 24 hour; for Attractant Rating WCR (by limit of response): four replicate traps, 0.01 mg to 200 mg; for LR for WCR: sticky traps
Outline: (§1)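 Adult Diabrotica beetles were tested against cylindrical sticky traps baited with cotton wicks holding 0.01 mg to 200 mg of individual Cucurbita maxima blossom volatiles. Response limit rated by trap catch.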

[2] = test system: NCR; experiment: as above; type: in vivo, Diabrotica barberi; conditions: 24 hour; four replicate traps; 0.01 mg to 200 mg
Outline: as §1

[3] = test system: western corn rootworm (WCR) adults; conditions: cited from earlier work
[4] = test system: western corn rootworm (WCR) adults; experiment: Sticky trap attraction in sweet corn plots (Example 1); type: in vivo, Diabrotica virgifera virgifera; conditions: for Mean number of WCR per trap (±standard deviation): n = 4
Outline: (§2)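 Field trapping in sweet-corn plots beside a Blue Hubbard squash trap crop; lures on mineral-oil-impregnated cotton wicks atop sticky paper-carton traps on 1-m posts, 4 replicates in randomized complete blocks. Beetles counted after 24 h; VIPAE/VIP/TIC mixtures and single components at 1–300 mg per trap, ANOVA/Duncan at P=0.05.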

[5] = test system: SCR; experiment: Limit of response rating of squash blossom volatiles on sticky traps (Example 5); type: in vivo, Diabrotica undecimpunctata howardi; conditions: 24 hour; four replicate traps; 0.01 mg to 200 mg
Outline: as §1

[6] = test system: southern corn rootworm (SCR) adults; experiment: Sticky trap attraction in sweet corn plots (Example 1); type: in vivo, Diabrotica undecimpunctata howardi; conditions: for Mean number of SCR per trap (±standard deviation): n = 4
Outline: as §2

[7] = test system: rootworm beetles; experiment: Small-plot comparison of insecticides in TEX×PEP dry ground bait; type: in vivo; conditions: 0.01-0.1% (wt/wt); 1- to 3.3-m2 plots of corn and cucurbits
Method: Bait applications to evaluate various insecticides. The relative effectiveness of a variety of insecticides incorporated at 0.01-0.1% (wt/wt) in TEX×PEP dry ground bait was compared. The following insecticides were tested: bendiocarb, carbaryl, carbofuran, methomyl, oxamyl; dimethoate, malathion, isofenphos, phospholan, and mephospholan; and permethrin, cypermethrin, fenvalerate, and flucythrinate. […] The overall greater effectiveness of the carbamates in these small-plot tests is attributed to their rapid kill and lack of repellent effect. The pyrethroids were somewhat repellent to the rootworm beetles.

[8] = test system: D. v. virgifera; experiment: Sticky trap attraction along hybrid corn, Pomology South Farms (Example 2); type: in vivo, Diabrotica virgifera virgifera; conditions: 100 mg per trap, n = 4
Method: (§3) The candidate lures in all experiments were purchased commercially and exceeded 98% purity. The test chemicals were applied by capillary micropipettes to cotton dental wicks which were attached to the tops of 1.0 liter cylindrical paper cartons covered with TangleTrap™ (Tanglefoot Co., Grand Rapids, Mich.). The sticky trap techniques used were as described in Example 1. Cinnamyl alcohol and para-methoxycinnamaldehyde, which are solids, were dissolved in glass-distilled acetone prior to dosing the cotton wicks. All treatments were applied at a dosage of 100 mg per trap. 1,2,4-trimethoxybenzene, indole, and trans-cinnamaldehyde were mixed in a ratio of 1:1:1, by weight, immediately prior to dosing the cotton wicks. Control traps had untreated cotton wicks. Four replicates of treated and untreated traps were randomly positioned 10 meters apart on top of 1 m high posts along the border of a eight foot wide strip cut through the middle of a 4.05 ha relict prairie at Trelease Woods (ca. two miles northeast of Urbana, Ill.). The field consisted primarily of Andropogon gerardii Vitman (big bluestem) and a variety of composites. The tests were conducted in mid-August of two years and were timed to coincide with the presence of D. cristata and D. barberi adults in the flower heads of Canada thistle (Carduus arvensis Robson). In the second year, several new attractants of D. v. virgifera and D. barberi were tested in Trelease Woods and along the edge of a 0.8 ha field of hybrid corn located at the Pomology South Farms, Urbana, Ill. Attraction of Diabrotica species to the various lures was measured by the mean number of beetles caught after 24-h. On one date in late August of the first year, D. cristata and D. barberi were removed from the traps and sexed in the laboratory. The significance of treatments in all tests was determined by an analysis of variance and the individual means were separated by Duncan's multiple range test (Statistical Package for Social Science, Nie, et al., SPSS: statistical package for the social sciences, 2nd ed. McGraw-Hill, New York (1975). Data were logarithmically transformed for statistical analysis and the means and standard deviations are presented for the untransformed data.

[9] = test system: D. barberi; experiment: as above; type: in vivo, Diabrotica barberi; conditions: 100 mg per trap, n = 4
Method: as §3

[10] = test system: D. v. virgifera; experiment: Sticky trap attraction in prairie habitat, Trelease Woods (Example 2); type: in vivo, Diabrotica virgifera virgifera; conditions: 100 mg per trap, n = 4
Method: as §3, with “[…].” for “All treatments were applied at a dosage of 100 mg per trap. 1,2,4-trimethoxybenzene, indole, and trans-cinnamaldehyde were mixed in a ratio of 1:1:1, by weight, immediately prior to dosing the cotton wicks.”

[11] = test system: D. barberi; experiment: as above; type: in vivo, Diabrotica barberi; conditions: 100 mg per trap, n = 4
Method: as §3, with “[…].” for “All treatments were applied at a dosage of 100 mg per trap. 1,2,4-trimethoxybenzene, indole, and trans-cinnamaldehyde were mixed in a ratio of 1:1:1, by weight, immediately prior to dosing the cotton wicks.”

[12] = test system: D. cristata; experiment: as above; type: in vivo, Diabrotica cristata; conditions: 100 mg per trap, n = 4
Method: as §3, with “[…].” for “All treatments were applied at a dosage of 100 mg per trap. 1,2,4-trimethoxybenzene, indole, and trans-cinnamaldehyde were mixed in a ratio of 1:1:1, by weight, immediately prior to dosing the cotton wicks.”

[13] = test system: D. u. howardi; experiment: Sticky trap attraction along hybrid corn, Pomology South Farms (Example 2); type: in vivo, Diabrotica undecimpunctata howardi; conditions: 100 mg per trap, n = 4
Method: as §3

[14] = test system: D. u. howardi; experiment: Sticky trap attraction in prairie habitat, Trelease Woods (Example 2); type: in vivo, Diabrotica undecimpunctata howardi; conditions: 100 mg per trap, n = 4
Method: as §3, with “[…].” for “All treatments were applied at a dosage of 100 mg per trap. 1,2,4-trimethoxybenzene, indole, and trans-cinnamaldehyde were mixed in a ratio of 1:1:1, by weight, immediately prior to dosing the cotton wicks.”

[15] = test system: western corn rootworm (WCR) adults; experiment: Sticky trap attraction in corn, estragole analogues (Example 3); type: in vivo, Diabrotica virgifera virgifera; conditions: 100 mg per trap
Outline: (§4)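 Cotton wicks dosed with 100 mg or 100 μL attractant per trap on TangleTrap-coated cartons, four replicates 10 m apart on 1 m posts at field edges of hybrid or sweet corn. Mean beetles caught after ~24 h; log-transformed ANOVA with Duncan's test, P=0.05.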

[16] = test system: southern corn rootworm (SCR) adults; experiment: as above; type: in vivo, Diabrotica undecimpunctata howardi; conditions: September 11; 100 mg per trap; n = 4
Outline: as §4

[17] = August 4, second year, each compound 20 mg per trap
[18] = August 7, second year, each compound 20 mg per trap
[19] = August first year, South Farms, 24 h, single compounds 100 mg per trap, mixture 20 mg of each component
[20] = August first year, single compounds 100 mg per trap, mixture 20 mg each component

SMILES: c1ccc2[nH]ccc2c1 [Indole]
- Attractant Rating WCR (by limit of response) [1]: +4 (1-3)
- LR for WCR [1]: 1 mg
- Attractant Rating NCR (by limit of response) [2]: 0 (200)
- LR values for WCR attraction (literature) ([3]; in vivo): 1 mg
- relative percent activity (WCR) as compared with the highest mean value for the test date [4, 17]: 100%
- Mean number of WCR per trap (±standard deviation) [4, 17]: 51.3 ± 24.4 per trap
- relative percent activity (WCR) as compared with the highest mean value for the test date [4, 18]: 87%
- Mean number of WCR per trap (±standard deviation) [4, 18]: 27.5 ± 11.8 per trap
- Mean number of WCR per trap (±standard deviation) [4, 19]: 3.3 ± 2.1 per trap
- relative percent activity of the mean WCR trap catch as compared with the highest mean value in the column [4, 20]: 49%
- Attractant Rating SCR (by limit of response) [5]: 0 (200)
- relative percent activity (SCR) as compared with the highest mean value for the test date [6, 17]: 4%
- Mean number of SCR per trap (±standard deviation) [6, 17]: 1.5 ± 1.0 per trap
- relative percent activity (SCR) as compared with the highest mean value for the test date [6, 18]: 6%
- Mean number of SCR per trap (±standard deviation) [6, 18]: 2.8 ± 1.3 per trap
- Mean number of SCR per trap (±standard deviation) [6, 19]: 2.3 ± 2.1 per trap
- relative percent activity of the mean SCR trap catch as compared with the highest mean value in the column [6, 20]: 11%

SMILES: CNC(=O)ON=C(C)SC [methomyl]
- relative effectiveness of insecticides in TEX×PEP dry ground bait [7]: more effective than the pyrethroids

SMILES: CC(=O)/C=C/C1=C(C)CCCC1(C)C [β-ionone]
- Attractant Rating WCR (by limit of response) [1]: +4 (1-3)
- LR for WCR [1]: 3 mg
- Mean number of D. v. virgifera per stick trap per day (±standard deviation) in corn ([8]; August 7): 263.5 ± 94.6^cd per stick trap per day
- Mean number of D. v. virgifera per stick trap per day (±standard deviation) in corn ([8]; August 18): 89.0 ± 18.2^b per stick trap per day
- Mean number of D. barberi per stick trap per day (±standard deviation) in corn ([9]; August 7): 0.5 ± 0.7^a per stick trap per day
- Mean number of D. barberi per stick trap per day (±standard deviation) in corn ([9]; August 18): 1.5 ± 1.0^a per stick trap per day
- Attractant Rating NCR (by limit of response) [2]: 0 (200)
- Mean number of D. v. virgifera per day (±standard deviation) ([10]; August 11, 1987): 4.0 ± 0.8^b per day
- Mean number of D. v. virgifera per day (±standard deviation) ([10]; August 14, 1987): 2.3 ± 1.3^b per day
- Mean number of D. barberi per day (±standard deviation) ([11]; August 11, 1987): 0.3 ± 0.5^ab per day
- Mean number of D. barberi per day (±standard deviation) ([11]; August 14, 1987): 0.3 ± 0.5^a per day
- Mean number of D. cristata per day (±standard deviation) ([12]; August 11, 1987): 17.3 ± 8.7^b per day
- Mean number of D. cristata per day (±standard deviation) ([12]; August 14, 1987): 5.3 ± 2.2^b per day
- Mean number of D. u. howardi per stick trap per day (±standard deviation) in corn ([13]; August 7): 1.8 ± 2.4^a per stick trap per day
- Mean number of D. u. howardi per stick trap per day (±standard deviation) in corn ([13]; August 18): 0.5 ± 0.7^a per stick trap per day
- Mean number of D. u. howardi per day (±standard deviation) ([14]; August 11, 1987): 0.3 ± 0.5^a per day
- Mean number of D. u. howardi per day (±standard deviation) ([14]; August 14, 1987): 0.0^a per day
- Attractant Rating SCR (by limit of response) [5]: 0 (200)

SMILES: CCC(=O)OC(C)CCCCCC(C)CC (stereo not shown) [8-methyl-2-decylpropanoate]
- amount per sticky trap that attracted male WCR ([3]; per sticky trap): 5 µg

SMILES: CNC(=O)Oc1cccc2c1OC(C)(C)O2 [bendicarb, bendiocarb]
- relative effectiveness of insecticides in TEX×PEP dry ground bait [7]: more effective than the pyrethroids

SMILES: CCOc1ccc(OC)cc1 [VI, 4-methoxyphenyl ethyl ether]
- melting point: 34 to 35 °C
- Relative percent activity as compared with the highest mean in the column (WCR) ([15]; August 29): 8%
- Mean number of WCR per sticky trap (±standard deviation) after 24 hours ([15]; August 29, n = 4): 12.0 ± 1.8 per sticky trap
- Relative percent activity as compared with the highest mean in the column (WCR) ([15]; July 30): 39%
- Mean number of WCR per sticky trap (±standard deviation) after 24 hours ([15]; July 30, n = 4): 32.0 ± 8.4 per sticky trap

SMILES: CNC(=O)Oc1cccc2c1OC(C)(C)C2 [carbofuran]
- relative effectiveness of insecticides in TEX×PEP dry ground bait [7]: more effective than the pyrethroids

SMILES: CCOP(=S)(NC(C)C)Oc1ccccc1C(=O)OC(C)C (stereo not shown) [Isofenphos, isofenphos]
- relative effectiveness of insecticides in TEX×PEP dry ground bait [7]: most effective of the organophosphorus insecticides

SMILES: COC(=O)C=Cc1ccc(OC)cc1 [XIV, 4-methoxycinnamic acid methyl ester]
- melting point: 87 to 89 °C
- Mean number of SCR adults per sticky trap (±standard deviation) after 24 hours [16]: 0.7 ± 1.5^a per sticky trap
- Mean number of WCR adults per sticky trap (±standard deviation) after 24 hours ([15]; September 11, n = 4): 1.0 ± 1.1^a per sticky trap

SMILES: CNC(=O)Oc1cccc2ccccc12 [carbaryl]
- relative effectiveness of insecticides in TEX×PEP dry ground bait [7]: more effective than the pyrethroids
